Usually IC50 stands for the point on the concentration scale where inhibition reaches its midpoint.

One assay deals with Aβ42. Put plainly: Cellular assay for inhibition of Aβ1-42 production (H4 APP751 SWE clone 8.20). The conditions noted are these: 19 h, H4 APP751 SWE clone 8.20 cells, 19 h incubation; read-out: Activity Rating (Aβ42 cellular IC50), class symbol. Format: cell-based. As for the experimental part:
Cellular Assays for Inhibition of Aβ1-40 and Aβ1-42 Production
H4 cells stably transfected with APP751 containing the Swedish mutation (H4 APP751 SWE clone 8.20, developed at BMS) were maintained in log phase through twice weekly passage at a 1:20 split. […] Following incubation for 19 h in 5% CO2 at 37° C., plates were briefly centrifuged (1000 rpm, 5 min). A 10 μl aliquot from each well was transferred to a second assay plate (Costar 3709) for Aβ40 measurements. Antibody cocktails were freshly prepared by dilution into 40 mM Tris-HCl (pH 7.4) with 0.2% BSA and added to assay plates. For Aβ42 measurements, antibodies specific for the Aβ42 neoepitope (565, developed at BMS; conjugated to the Wallac reagent (Perkin Elmer)) and the N-terminal sequence of Aβ peptide (26D6, developed at SIBIA; conjugated to APC (Perkin Elmer)) were mixed and 20 μl of the mixture was added to each well of the incubated cell plate yielding a final concentration of 0.8 ng/well 565 and 75 ng/well 26D6. For the Aβ40 measurements, antibodies specific for the Aβ40 neoepitope (TSD, developed at BMS; conjugated to the Wallac reagent (Perkin Elmer)) and 26D6 as described above were mixed and 20 μl of the mixture was added to the 10 μl aliquots which had been removed previously from the cell plate yielding a final concentration of 1.6 ng/well TSD and 17.5 ng/well 26D6. Assay plates containing antibodies were sealed with aluminum foil and incubated overnight at 4° C. Signal was determined using a Viewlux counter (Perkin Elmer) and IC50 values determined using curve fitting in CurveMaster (Excel Fit based).
For `CN1C/C=C\COc2cc(ccc2-n2cnc(Cl)c2)Nc2nc3c(c1n2)CCC3c1ccc(F)cc1F` (stereo not drawn) [Example 18A, (11Z)-7-(4-chloro-1H-imidazol-1-yl)-18-(2,4-difluorophenyl)-14-methyl-10,13,14,16,17,18-hexahydro-15,2-(azeno)-8,4-(metheno)cyclopenta[h][1,6,10,12]oxatriazacycloheptadecine], the IC50 is less than 10 nM.
For the molecule `CN1CCCCOc2cc(ccc2-n2cnc(Cl)c2)Nc2nc3c(c1n2)CCC3c1ccc(F)cc1F` (stereo not drawn) [Example 19A, 7-(4-chloro-1H-imidazol-1-yl)-18-(2,4-difluorophenyl)-14-methyl-10,11,12,13,14,16,17,18-octahydro-15,2-(azeno)-8,4-(metheno)cyclopenta[h][1,6,10,12]oxatriazacycloheptadecine], the IC50 is less than 10 nM.
On the same count and under the same terms, the value for `CN1CCCOc2cc(ccc2-n2cnc(Cl)c2)Nc2nc3c(c1n2)CCC3c1ccc(F)cc1F` (stereo not drawn) [Example 20A, 7-(4-chloro-1H-imidazol-1-yl)-17-(2,4-difluorophenyl)-13-methyl-11,12,13,15,16,17-hexahydro-10H-14,2-(azeno)-8,4-(metheno)cyclopenta[g][1,5,9,11]oxatriazacyclohexadecine] was less than 10 nM; that for `N#Cc1ccc2cc1OCCCCNc1nc(nc3c1CCC3c1ccccc1)N2` (stereo not drawn) [Example 23A, 7-cyano-18-phenyl-10,11,12,13,14,16,17,18-octahydro-15,2-(azeno)-8,4-(metheno)cyclopenta[h][1,6,10,12]oxatriazacycloheptadecine] was 10 to 100 nM.
Same read-out and setting: in the case of `CN1C/C=C\COc2cc(ccc2C#N)Nc2nc3c(c1n2)CCC3c1ccc(F)cc1F` (stereo not drawn) [Example 28B, (11Z)-7-cyano-18-(2,4-difluorophenyl)-14-methyl-10,13,14,16,17,18-hexahydro-15,2-(azeno)-8,4-(metheno)cyclopenta[h][1,6,10,12]oxatriazacycloheptadecine] it was 100 to 1000 nM; in that of `CN1CCCOc2cc(ccc2C#N)Nc2nc3c(c1n2)CCC3c1ccccc1` (stereo not drawn) [Example 31A, 7-cyano-β-methyl-17-phenyl-11,12,13,15,16,17-hexahydro-10H-14,2-(azeno)-8,4-(metheno)cyclopenta[g][1,5,9,11]oxatriazacyclohexadecine], 10 to 100 nM.
As for `N#Cc1ccc2cc1OCCCNc1nc(nc3c1CCC3c1ccc(F)cc1F)N2` (stereo not drawn) [Example 33A, 7-cyano-17-(2,4-difluorophenyl)-11,12,13,15,16,17-hexahydro-10H-14,2-(azeno)-8,4-(metheno)cyclopenta[g][1,5,9,14]oxatriazacyclohexadecine], the IC50 fell in the range of 10 to 100 nM.

Staying with this assay, now noted: 19 h, H4 APP751 SWE clone 8.20 cells, 19 h incubation; unit inferred; read-out: Activity Rating (Aβ42 cellular IC50), numeric value.
For the molecule `CN1C/C=C\COc2cc(ccc2-n2cnc(Cl)c2)Nc2nc3c(c1n2)CCC3c1ccc(F)cc1F` (stereo not drawn) [Example 18B, (11Z)-7-(4-chloro-1H-imidazol-1-yl)-18-(2,4-difluorophenyl)-14-methyl-10,13,14,16,17,18-hexahydro-15,2-(azeno)-8,4-(metheno)cyclopenta[h][1,6,10,12]oxatriazacycloheptadecine], the IC50 amounted to 47 nM.
Regarding `CN1CCCOc2cc(ccc2-n2cnc(Cl)c2)Nc2nc3c(c1n2)CCC3c1ccc(F)cc1F` (stereo not drawn) [Example 20B, 7-(4-chloro-1H-imidazol-1-yl)-17-(2,4-difluorophenyl)-13-methyl-11,12,13,15,16,17-hexahydro-10H-14,2-(azeno)-8,4-(metheno)cyclopenta[g][1,5,9,11]oxatriazacyclohexadecine], the IC50 amounted to 11 nM.
For the molecule `CN1C/C=C\COc2cc(ccc2C#N)Nc2nc3c(c1n2)CCC3c1ccc(F)cc1F` (stereo not drawn) [Example 28A, (11Z)-7-cyano-18-(2,4-difluorophenyl)-14-methyl-10,13,14,16,17,18-hexahydro-15,2-(azeno)-8,4-(metheno)cyclopenta[h][1,6,10,12]oxatriazacycloheptadecine], the IC50 was 13 nM.
Turning to `CN1CCCOc2cc(ccc2C#N)Nc2nc3c(c1n2)CCC3c1ccccc1` (stereo not drawn) [Example 31B, 7-cyano-β-methyl-17-phenyl-11,12,13,15,16,17-hexahydro-10H-14,2-(azeno)-8,4-(metheno)cyclopenta[g][1,5,9,11]oxatriazacyclohexadecine], the IC50 was determined as 31 nM.

The same assay, now with this note: H4 APP751 SWE clone 8.20 cells, 19 h incubation; read-out: Activity Rating (Aβ42 cellular IC50), class symbol.
`Fc1ccc(C2CCc3c4nc(nc32)Nc2ccc(-n3cnc(Cl)c3)c(c2)OCC=CCN4)c(F)c1` (stereo not drawn) [Example 15A, (11E)-7-(4-chloro-1H-imidazol-1-yl)-18-(2,4-difluorophenyl)-10,13,14,16,17,18-hexahydro-15,2-(azeno)-8,4-(metheno)cyclopenta[h][1,6,10,12]oxatriazacycloheptadecine]: the IC50 was less than 10 nM.
As for `Clc1cn(-c2ccc3cc2OCC=CCCc2nc(nc4c2CCC4c2ccccc2)N3)cn1` (stereo not drawn) [Example 17B, (11E)-7-(4-chloro-1H-imidazol-1-yl)-18-phenyl-10,13,14,16,17,18-hexahydro-15,2-(azeno)-8,4-(metheno)cyclopenta[h][1,10,12]oxadiazacycloheptadecine], the IC50 was in the range of 10 to 100 nM.
On the same count and under the same terms, the value for `CN1CCCCOc2cc(ccc2-n2cnc(Cl)c2)Nc2nc3c(c1n2)CCC3c1ccc(F)cc1F` (stereo not drawn) [Example 19B, 7-(4-chloro-1H-imidazol-1-yl)-18-(2,4-difluorophenyl)-14-methyl-10,11,12,13,14,16,17,18-octahydro-15,2-(azeno)-8,4-(metheno)cyclopenta[h][1,6,10,12]oxatriazacycloheptadecine] was 10 to 100 nM; that for `N#Cc1ccc2cc1OCC=CCNc1nc(nc3c1CCC3c1ccccc1)N2` (stereo not drawn) [Example 22A, (11E)-7-cyano-18-phenyl-10,13,14,16,17,18-hexahydro-15,2-(azeno)-8,4-(metheno)cyclopenta[h][1,6,10,12]oxatriazacycloheptadecine] was 10 to 100 nM; that for `N#Cc1ccc2cc1OCC=CCNc1nc(nc3c1CCC3c1ccc(F)cc1F)N2` (stereo not drawn) [Example 24A, (11Z)-7-cyano-18-(2,4-difluorophenyl)-10,13,14,16,17,18-hexahydro-15,2-(azeno)-8,4-(metheno)cyclopenta[h][1,6,10,12]oxatriazacycloheptadecine] was less than 10 nM.
Take `CN1CC=CCOc2cc(ccc2C#N)Nc2nc3c(c1n2)CCC3c1ccccc1` (stereo not drawn) [Example 29A, (11Z)-7-cyano-14-methyl-18-phenyl-10,13,14,16,17,18-hexahydro-15,2-(azeno)-8,4-(metheno)cyclopenta[h][1,6,10,12]oxatriazacycloheptadecine]: the IC50 is less than 10 nM.
Same read-out and setting: the value for `CN1CC=CCOc2cc(ccc2C#N)Nc2nc3c(c1n2)CCC3c1ccccc1` (stereo not drawn) [Example 29B, (11Z)-7-cyano-14-methyl-18-phenyl-10,13,14,16,17,18-hexahydro-15,2-(azeno)-8,4-(metheno)cyclopenta[h][1,6,10,12]oxatriazacycloheptadecine] was 100 to 1000 nM; that for `CN1CC=CCOc2cc(ccc2C#N)Nc2nc3c(c1n2)CCC3c1ccccc1` (stereo not drawn) [Example 30A, (11E)-7-cyano-14-methyl-18-phenyl-10,13,14,16,17,18-hexahydro-15,2-(azeno)-8,4-(metheno)cyclopenta[h][1,6,10,12]oxatriazacycloheptadecine] was 10 to 100 nM.
Still for that read-out and setting: the value for `CN1CC=CCOc2cc(ccc2C#N)Nc2nc3c(c1n2)CCC3c1ccccc1` (stereo not drawn) [Example 30B, (11E)-7-cyano-14-methyl-18-phenyl-10,13,14,16,17,18-hexahydro-15,2-(azeno)-8,4-(metheno)cyclopenta[h][1,6,10,12]oxatriazacycloheptadecine] was 10 to 100 nM.

The assay is the same for the next values; noted with them: H4 APP751 SWE clone 8.20 cells, 19 h incubation; unit inferred; read-out: Activity Rating (Aβ42 cellular IC50), numeric value.
Turning to `Fc1ccc(C2CCc3c4nc(nc32)Nc2ccc(-n3cnc(Cl)c3)c(c2)OCC=CCN4)c(F)c1` (stereo not drawn) [Example 15B, (11E)-7-(4-chloro-1H-imidazol-1-yl)-18-(2,4-difluorophenyl)-10,13,14,16,17,18-hexahydro-15,2-(azeno)-8,4-(metheno)cyclopenta[h][1,6,10,12]oxatriazacycloheptadecine], the IC50 is 23 nM.
Same read-out and setting: the value for `Clc1cn(-c2ccc3cc2OCC=CCCc2nc(nc4c2CCC4c2ccccc2)N3)cn1` (stereo not drawn) [Example 17A, (11E)-7-(4-chloro-1H-imidazol-1-yl)-18-phenyl-10,13,14,16,17,18-hexahydro-15,2-(azeno)-8,4-(metheno)cyclopenta[h][1,10,12]oxadiazacycloheptadecine] was 5.6 nM; that for `N#Cc1ccc2cc1OCC=CCNc1nc(nc3c1CCC3c1ccccc1)N2` (stereo not drawn) [Example 21A, (11Z)-7-cyano-18-phenyl-10,13,14,16,17,18-hexahydro-15,2-(azeno)-8,4-(metheno)cyclopenta[h][1,6,10,12]oxatriazacycloheptadecine] was 7.8 nM; that for `N#Cc1ccc2cc1OCC=CCNc1nc(nc3c1CCC3c1ccc(F)cc1F)N2` (stereo not drawn) [Example 24B, (11Z)-7-cyano-18-(2,4-difluorophenyl)-10,13,14,16,17,18-hexahydro-15,2-(azeno)-8,4-(metheno)cyclopenta[h][1,6,10,12]oxatriazacycloheptadecine] was 43 nM.
